Test results from patent US11905306B2 (priority 2021, dated 2024).

Columns and labels:
Toronto 2 SARS CoV-1 = test: organism not typed; assay type: cell-based; settings: Vero C1008, 72 h, read-out: SARS-1 EC50 (μM) VeroE6
SARS-2 [1] = test: microbe, parasite or virus in culture; assay type: cell-based; settings: Severe acute respiratory syndrome coronavirus 2, read-out: SARS-2 VU-EC50 (μM) (A549-hACE2)
USA_WA1/2020 SARS CoV-2 = test: microbe, parasite or virus in culture; assay type: cell-based; settings: Severe acute respiratory syndrome coronavirus 2, Vero C1008, 72 h, read-out: SARS-2 EC50 (μM) VeroE6
in vitro = settings: African green monkey
SARS-2 [2] = tested on: SARS-2

Row | Compound | EC50 (Toronto 2 SARS CoV-1) [µM] | EC50 (SARS-2 [1]) [µM] | EC50 (USA_WA1/2020 SARS CoV-2) [µM] | CC50 (in vitro) [µM] | SARS-2 VU-VTR @ 20 μM (A549-hACE2) (logs) (SARS-2 [2])
1 | O=C(Nc1cc(C#Cc2ccccn2)cc(OC(F)(F)F)c1)c1ccc(N2CCCCC2=O)cc1 [Compound 50, 4-(2-Oxopiperidin-1-yl)-N-(3-(pyridin-2-ylethynyl)-5-(trifluoromethoxy)phenyl)benzamide] | 0.13 | 0.09 | 0.18 | > 30 | 2.59
2 | O=C1CCc2cc(NC(=O)c3cccc(C#Cc4ccccn4)c3)ccc2N1 [Compound 54, N-(2-oxo-1,2,3,4-tetrahydroquinolin-6-yl)-3-(pyridin-2-ylethynyl)benzamide] | > 30 | 1.42 | 3 | > 30 | 2.24
3 | CC1(C)CN(c2ccc(NC(=O)c3cccc(C#Cc4ccccn4)c3)cc2)C1=O [Compound 58, N-(4-(3,3-dimethyl-2-oxoazetidin-1-yl)phenyl)-3-(pyridin-2-ylethynyl)benzamide] | 0.3 | 0.38 | 0.5 | > 40 | 1.93
4 | O=C(Nc1ccc(N2CCCCC2=O)cc1)c1cccc(C#Cc2ccccn2)c1 [Compound 59, N-(4-(2-oxopiperidin-1-yl)phenyl)-3-(pyridin-2-ylethynyl)benzamide] | 1.05 | 0.66 | 2 | > 30 | 2.98
5 | CC(C)OC(=O)c1ccc(NC(=O)c2cccc(C#Cc3ccccn3)c2)cc1 [Compound 65, Isopropyl 4-(3-(pyridin-2-ylethynyl)benzamido)benzoate] | 0.16 | 0.29 | 0.46 | > 30 | 2.78
6 | O=C(Nc1ccc(C(=O)OCC2CC2)cc1)c1cccc(C#Cc2ccccn2)c1 [Compound 66, Cyclopropylmethyl 4-(3-(pyridin-2-ylethynyl)benzamido)benzoate] | 0.49 | 0.46 | 0.83 | > 30 | 1.73
7 | CC(C)n1nccc1-c1ccc(NC(=O)c2cccc(C#Cc3ccccn3)c2)cc1 [Compound 69, N-(4-(1-isopropyl-1H-pyrazol-5-yl)phenyl)-3-(pyridin-2-ylethynyl)benzamide] | 0.24 | 0.22 | 0.45 | > 30 | 3.3
8 | O=C(Nc1ccc(N2CCCCS2(=O)=O)cc1)c1cccc(C#Cc2ccccn2)c1 [Compound 70, N-(4-(1,1-dioxido-1,2-thiazinan-2-yl)phenyl)-3-(pyridin-2-ylethynyl)benzamide] | 1.29 | 0.82 | 1.08 | > 30 | 2.47
9 | CCOP(=O)(OCC)c1ccc(NC(=O)c2cccc(C#Cc3ccccn3)c2)cc1 [Compound 73, Diethyl (4-(3-(pyridin-2-ylethynyl)benzamido)phenyl)phosphonate] | 0.18 | 0.003 | 0.45 | > 30 | 2.93
